Laboratory results: PMC6099682, “(-)-Shikimic Acid as a Chiral Building Block for the Synthesis of New Cytotoxic 6-Aza-Analogues of Angucyclinones” (Molecules : A Journal of Synthetic Chemistry and Natural …, 2018)
Read-outs that look alike come from different tables or passages of the source.

Legend:
[1] = test system: human colon epithelial cells (CCD841 CoN); test: Sulforhodamine B cytotoxicity assay, non-tumoral CCD841 CoN; assay type: cell-based; details: CCD-841CoN, 72 h continuous exposure, SRB assay, mean ± SD
Experimental: (§1) To analyse the scope of the shikimic-fragment incorporated in the angucycline scaffold on the cytotoxic activity of these compounds, we included five previously obtained compounds (Figure 2, [32]). Therefore, the cytotoxicity of the new nine synthesised compounds, and of the five aforementioned compounds, was evaluated in vitro against different cancer cell lines: PC-3 (prostate cancer), HT-29 (colon cancer), MCF-7 (breast cancer), and one non-tumoral cell line, human colon epithelial cells (CCD841 CoN). A conventional colorimetric assay was set up to estimate the IC50 values, which represent the concentration of a drug that is required for 50% inhibition in vitro after 72 h of continuous exposure to the test compounds. Several serial dilutions (from 1.25 to 100 µM) for each sample were evaluated in triplicate.
(§2) The experimental cell lines were obtained from the American Type Culture Collection. HT-29 (colon cancer cell line), PC-3 (prostate cancer), MCF-7 (breast cancer), and CCD841 CoN (colon epithelial) were grown in DMEM-F12 containing 10% FCS, 100 U/mL penicillin, 100 µg/mL streptomycin, and 1 mM glutamine.
(§3) The in vitro cytotoxic activities of all the compounds were evaluated on cell lines previously mentioned by the sulforhodamine B assay, according to [42]. Briefly, cells were seeded at a plating density of 5 × 10^3 cells/well into 96 well plates. Cells were incubated at 37 °C for 24 h to allow cell attachment. The test compounds at indicated final concentrations were added to the culture medium and the cell cultures were continued for 72 h under the same conditions. Stock solutions of compounds were prepared in DMSO. Control cultures received 0.1% DMSO alone. At the end of the treatment, cells were fixed with trichloroacetic acid (50% w/v) at 4 °C and, subsequently, washed with water. Cells were stained with 0.1% sulforhodamine B in 1% acetic acid for 30 min. Posteriorly, the cells were washed acetic acid (1%) to remove unbound sulforhodamine B. Protein-bound stain was solubilized with 10 mM unbuffered Tris base). The optical density was determined using a […] plate reader (540 nm). The obtained values are transformed to percentages of viable cells versus control treatment and the IC50 values calculated for each compound in the cell lines were studied using the SigmaPlot 12.0 software (Systat Software, San Jose, CA, USA). Values shown are the mean ± SD of the three independent experiments in triplicate.

[2] = test system: MCF-7 (breast cancer); test: Sulforhodamine B cytotoxicity assay, MCF-7; assay type: cell-based; details: for Selectivity index (SI), ratio of IC50 in CoN in cancer cells, MCF-7: CCD841-CoN IC50 / MCF-7 IC50; for IC50: Homo sapiens, MCF7, 72 h continuous exposure, SRB assay
Experimental: as §1, §2, §3

[3] = test system: PC-3 (prostate cancer); test: Sulforhodamine B cytotoxicity assay, PC-3; assay type: cell-based; details: for IC50: 72 h continuous exposure, SRB assay, mean ± SD; for Selectivity index (SI), ratio of IC50 in CoN in cancer cells, PC-3: CCD841-CoN IC50 / PC-3 IC50
Experimental: as §1, §2, §3

[4] = test system: HT-29 (colon cancer); test: Sulforhodamine B cytotoxicity assay, HT-29; assay type: cell-based; details: for IC50: 72 h continuous exposure, SRB assay, mean ± SD; for Selectivity index (SI), ratio of IC50 in CoN in cancer cells, HT-29: CCD841-CoN IC50 / HT-29 IC50
Experimental: as §1, §2, §3

[5] = test system: Staphylococcus aureus; set-up: method as in PMID 26968676; details: cited from earlier work
[6] = test system: MCF-7; set-up: method as in PMID 23136829; details: read-out: IC50, in vitro cytotoxicity toward MCF-7; cited from earlier work
[7] = test system: SF-268; set-up: method as in PMID 23136829; details: read-out: IC50, in vitro cytotoxicity toward SF-268; cited from earlier work
[8] = test system: lung carcinoma, MBA9812; set-up: method as in doi:10.1021/jo00007a009; details: cited from earlier work
[9] = mean ± SD, read-out: IC50 Values MCF-7

| SMILES | melting point [°C] | IC50 [1] [µM] | Selectivity index (SI), ratio of IC50 in CoN in cancer cells, MCF-7 [2] | IC50 [2, 9] [µM] | IC50 ([3]; 72 h) [µM] | Selectivity index (SI), ratio of IC50 in CoN in cancer cells, PC-3 [3] | IC50 [4] [µM] | Selectivity index (SI), ratio of IC50 in CoN in cancer cells, HT-29 [4] | IC50 ([4]; Homo sapiens, HT-29, 72 h) [µM] | IC50 ([2]; read-out: IC50 value MCF-7) [µM] | antibacterial activities against Staphylococcus aureus [5] | IC50 [6] [µM] | IC50 [7] [µM] | activity against the lung carcinoma, MBA9812, in mice [8] | IC50 [3] [µM] |
| --- | --- | --- | --- | --- | --- | --- | --- | --- | --- | --- | --- | --- | --- | --- | --- |
| CO[C@@H]1[C@H](OC)c2c(cnc3c2C(=O)c2ccccc2C3=O)C[C@H]1OC [Compound 17, (1R,2S,3R)-1,2,3-Trimethoxy-1,2,3,4-tetrahydrobenzo[b]phenanthridine-7,12-dione] | 184.8 | 11.8 ± 1.3 | 1.0 | 11.9 ± 1.5 | 3.9 ± 0.6 | 3.0 | 3.3 ± 0.9 | 3.6 | ~3 | – | – | – | – | – | – |
| CO[C@H]1C=Cc2cnc3c(c2[C@@H]1OC)C(=O)c1cccnc1C3=O [Compound 19a, (1S,2S)-1,2-Dimethoxy-1,2-dihydropyrido[3,2-b]phenanthridine-7,12-dione] | 78.8 | 0.04 ± 0.01 | 4.0 | 0.01 ± 0.005 | – | 0.5 | – | – | – | ~0.01 | – | – | – | – | – |
| Cc1cc(O)c2c3c(ncc2c1)C(=O)c1c(O)cccc1C3=O [Compound 4b, phenanthroviridone] | – | – | – | – | – | – | – | – | – | – | antibacterial activities | 0.17 | 0.09 | active | – |
| CO[C@H]1C=Cc2cnc3c(c2[C@@H]1OC)C(=O)c1ccccc1C3=O [Compound 19c, (1S,2S)-1,2-Dimethoxy-1,2-dihydrobenzo[b]phenanthridine-7,12-dione] | 117.5 | 17.4 ± 2 | 1.4 | 12.8 ± 1.4 | 4 ± 0.4 | 4.4 | – | 0.8 | 21 ± 3.6 | – | – | – | – | – | – |
| CO[C@@H]1[C@@H]2C(=CNC3=C2C(=O)c2c(O)ccc(O)c2C3=O)C[C@@H](OC)[C@@H]1OC [Compound 16c, (1R,2S,3R,12bR)-8,11-Dihydroxy-1,2,3-trimethoxy-1,2,3,4,6,12b-hexahydrobenzo[b]phenanthridine-7,12-dione] | 139 | 8.8 ± 1.3 | 0.7 | 13.5 ± 0.9 | 6.4 ± 0.8 | 1.4 | – | 2.2 | 4 ± 0.3 | – | – | – | – | – | – |
| CO[C@@H]1[C@@H]2C(=CNC3=C2C(=O)c2cccc(O)c2C3=O)C[C@@H](OC)[C@@H]1OC [Compound 16b, (1R,2S,3R,12bR)-8-Hydroxy-1,2,3-trimethoxy-1,2,3,4,6,12b-hexahydrobenzo[b]phenanthridine-7,12-dione] | 177.3 | 15.5 ± 3.1 | 1.3 | 11.5 ± 3.1 | 6.6 ± 1.1 | 2.3 | – | 2.9 | 5.3 ± 0.8 | – | – | – | – | – | – |
| CN[C@H]1C[C@@H](Oc2cc(C)cc3cnc4c(c23)C(=O)c2cccc(O)c2C4=O)O[C@H](C)[C@H]1O [Compound 4a, phenanthroviridin] | – | – | – | – | – | – | – | – | – | – | – | – | – | active | – |
| CN(C)N1C=C2C[C@@H](O[Si](C)(C)C(C)(C)C)[C@@H]3OC(C)(C)O[C@@H]3[C@H]2C2=C1C(=O)c1c(O)cccc1C2=O [Compound 7a] | – | 2.3 ± 0.3 | 0.1 | 16 ± 1 | < 1 | 3.3 | 0.2 ± 0.05 | 11.5 | < 0.4 | – | – | – | – | – | 0.7 ± 0.1 |
| COc1cccc2cnc3c(c12)C(=O)c1ccccc1C3=O [Compound 20, 1-Methoxybenzo[b]phenanthridine-7,12-dione] | – | 23.6 ± 3.4 | 1.7 | 14 ± 1.7 | 7.8 ± 1 | 3.0 | 3.7 ± 1.2 | 6.4 | ~3 | – | – | – | – | – | – |
| CO[C@@H]1[C@@H]2C(=CN(N(C)C)C3=C2C(=O)c2ccccc2C3=O)C[C@@H](OC)[C@@H]1OC [Compound 15, (1R,2S,3R,12bR)-6-(Dimethylamino)-1,2,3-trimethoxy-1,2,3,4,6,12b-hexahydrobenzo[b]phenanthridine-7,12-dione] | 128.5 | 81.6 ± 15.8 | 1.0 | 78.1 ± 6.9 | 34.8 ± 0.3 | 2.3 | – | 2.8 | 29.2 ± 6.8 | – | – | – | – | – | – |
| CO[C@@H]1[C@@H]2C(=CNC3=C2C(=O)c2ccccc2C3=O)C[C@@H](OC)[C@@H]1OC [Compound 16a, (1R,2S,3R,12bR)-1,2,3-Trimethoxy-1,2,3,4,6,12b-hexahydrobenzo[b]phenanthridine-7,12-dione] | 161.5 | 116 ± 17.8 | 1.0 | 118 ± 10.8 | 23.6 ± 3.7 | 4.9 | – | 2.7 | 42.9 ± 8.4 | – | – | – | – | – | – |
| CC(=O)Oc1cccc2c1C(=O)C1=C(C2=O)[C@H]2C(=CN1N(C)C)C[C@@H](O[Si](C)(C)C(C)(C)C)[C@@H]1OC(C)(C)O[C@H]21 [Compound 7b] | – | 0.8 ± 0.1 | 0.1 | 12.1 ± 4 | 2.4 ± 0.9 | 0.3 | – | 0.4 | 2.1 ± 1.2 | – | – | – | – | – | – |
| CO[C@H]1C=Cc2cnc3c(c2[C@@H]1OC)C(=O)c1ccc(C)nc1C3=O [Compound 19b, (1S,2S)-1,2-Dimethoxy-9-methyl-1,2-dihydropyrido[3,2-b]phenanthridine-7,12-dione] | 161.2 | 0.3 ± 0.02 | 1.6 | 0.19 ± 0.04 | – | 0.7 | 0.39 ± 0.04 | – | < 0.4 | – | – | – | – | – | – |
| CC1(C)O[C@@H]2[C@H](O1)c1c(cnc3c1C(=O)c1ccccc1C3=O)C[C@H]2O[Si](C)(C)C(C)(C)C [Compound 9a] | – | 2.8 ± 0.4 | 0.2 | 17.8 ± 3 | 7.6 ± 1.2 | 0.4 | – | 0.8 | 3.7 ± 0.8 | – | – | – | – | – | – |
| CC1(C)O[C@@H]2[C@H](O1)c1c(cnc3c1C(=O)c1c(O)ccc(O)c1C3=O)C[C@H]2O[Si](C)(C)C(C)(C)C [Compound 9b] | – | 15.6 ± 2.1 | 0.6 | 28.3 ± 4 | 13.1 ± 2 | 1.2 | – | 1.1 | 15 ± 4.2 | – | – | – | – | – | – |
| CC1(C)O[C@@H]2[C@@H]3C(=CNC4=C3C(=O)c3ccccc3C4=O)C[C@@H](O[Si](C)(C)C(C)(C)C)[C@@H]2O1 [Compound 8] | – | 13.8 ± 1 | 3.3 | 4.2 ± 4.2 | 5.7 ± 1.3 | 2.4 | – | 1.8 | 7.8 ± 0.9 | – | – | – | – | – | – |
